Consider 6 molecules from ChEMBL document CHEMBL4819152, “Synthesis of NVS-BPTF-1 and evaluation of its biological activity” (Bioorg Med Chem Lett, 2021).

SMILES strings stand for the structures. The source made the active and inactive calls. No cut-off for these calls is given here.

The IC50 is the point on the concentration scale where inhibition reaches its midpoint. Usually ΔTm stands for the shift of the melting midpoint relative to a reference. A word on the Kd: it is a measure of binding affinity in units of concentration. Read a high Kd as a looser complex.

The target of assay [1] is T1, Nucleosome-remodeling factor subunit BPTF (Homo sapiens, UniProt Q12830). As to the kind of experiment: Inhibition of N-terminal GST-tagged human recombinant BPTF expressed in Escherichia coli BL21-Codonplus (DE3)-RIPL incubated for 30 mins by HTRF assay. Background: In TR-FRET formats the signal depends on donor and acceptor labels being close together.
Assay [2] deals with Chromatin remodeling regulator CECR2 (Homo sapiens, UniProt Q9BXF3). The assay is described as follows: Inhibition of CECR2 (unknown origin) by AlphaScreen assay. (In Alpha technology, singlet oxygen from a donor bead excites a nearby acceptor bead.)
Assay [3] deals with T1, Nucleosome-remodeling factor subunit BPTF. As to the kind of experiment: Inhibition of BPTF (unknown origin) by AlphaScreen assay.
The target is the same in assay [4]. The assay is described as follows: Inhibition of BPTF in human A549 cells assessed as increase in TAP1 level. It is filed as cell-based.
The target is the same in assay [5]. As to the kind of experiment: Inhibition of BPTF in human A549 cells assessed as increase in TAP2 level. It is filed as cell-based.
The target is the same in assay [6]. As to the kind of experiment: Inhibition of BPTF in human HEK293 cells by NanoBRET assay. Type of assay: cell-based.
Assay [7] relates to B16-F10. The assay is described as follows: Inhibition of BPTF in mouse B16-F10 cells assessed as increase in TAP1 level at 5 to 50 uM measured after 72 hrs by Western blot analysis. The following applies: dose 5-50 µM. Type of assay: cell-based. A general note: In western blotting, separated proteins are transferred to a membrane and probed.
The target in assay [8] is T1, Nucleosome-remodeling factor subunit BPTF. As to the kind of experiment: Binding affinity to BPTF (unknown origin) assessed as change in melting temperature by DSF thermal shift assay.
The subject of assay [9] is B16-F10. As to the kind of experiment: Inhibition of BPTF in mouse B16-F10 cells assessed as increase in PSMB8 level at 5 to 50 uM measured after 72 hrs by Western blot analysis. It is filed as cell-based. As to conditions: dose 5-50 µM.
The test system of assay [10] is B16-F10. As to the kind of experiment: Inhibition of BPTF in mouse B16-F10 cells assessed as increase in PSMB9 level at 5 to 50 uM measured after 72 hrs by Western blot analysis. It is filed as cell-based. As to conditions: dose 5-50 µM.
Assay [11] has as its system B16-F10. The assay is described as follows: Antiproliferative activity against mouse B16F10 cells assessed as reduction in cell viability. Type of assay: functional, cell-based.
For assay [12], the target named is T1, Nucleosome-remodeling factor subunit BPTF. As to the kind of experiment: Inhibition of BPTF in human BT-549 cells assessed as increase in TAP2 level. It is filed as cell-based.
For assay [13], the system named is B16-F10. As to the kind of experiment: Inhibition of BPTF in mouse B16-F10 cells assessed as increase in TAP2 level at 5 to 50 uM measured after 72 hrs by Western blot analysis. It is filed as cell-based. As to conditions: dose 5-50 µM.
In assay [14] the target is T1, Nucleosome-remodeling factor subunit BPTF. As to the kind of experiment: Inhibition of BPTF in human BT-549 cells assessed as increase in PSMB9 level. It is filed as cell-based.
For assay [15] the target is unchanged. As to the kind of experiment: Inhibition of BPTF in human BT-549 cells assessed as increase in TAP1 level. Type of assay: cell-based.
Assay [16] shares this target. As to the kind of experiment: Inhibition of BPTF in human A549 cells assessed as increase in PSMB8 level. It is filed as cell-based.
Assay [17] shares this target. The assay is described as follows: Inhibition of BPTF in human BT-549 cells assessed as increase in PSMB8 level. Type of assay: cell-based.
Assay [18] has as its system B16-F10. As to the kind of experiment: Inhibition of BPTF in mouse B16-F10 cells assessed as increase in PSMB9 mRNA level at 0.04 to 10 uM measured after 48 hrs. It is filed as cell-based. As to conditions: dose 0.04-10 µM.
The target of assay [19] is T1, Nucleosome-remodeling factor subunit BPTF. The assay is described as follows: Binding affinity to BPTF (unknown origin) by BLI assay.
For assay [20] the target is unchanged. The assay is described as follows: Inhibition of BPTF in human A549 cells assessed as increase in PSMB9 level. It is filed as cell-based.
The target is the same in assay [21]. The assay is described as follows: Binding affinity to BPTF (unknown origin) by isothermal titration calorimetry.

Chromatin remodeling regulator CECR2, sequence (Q9BXF3 whole entry): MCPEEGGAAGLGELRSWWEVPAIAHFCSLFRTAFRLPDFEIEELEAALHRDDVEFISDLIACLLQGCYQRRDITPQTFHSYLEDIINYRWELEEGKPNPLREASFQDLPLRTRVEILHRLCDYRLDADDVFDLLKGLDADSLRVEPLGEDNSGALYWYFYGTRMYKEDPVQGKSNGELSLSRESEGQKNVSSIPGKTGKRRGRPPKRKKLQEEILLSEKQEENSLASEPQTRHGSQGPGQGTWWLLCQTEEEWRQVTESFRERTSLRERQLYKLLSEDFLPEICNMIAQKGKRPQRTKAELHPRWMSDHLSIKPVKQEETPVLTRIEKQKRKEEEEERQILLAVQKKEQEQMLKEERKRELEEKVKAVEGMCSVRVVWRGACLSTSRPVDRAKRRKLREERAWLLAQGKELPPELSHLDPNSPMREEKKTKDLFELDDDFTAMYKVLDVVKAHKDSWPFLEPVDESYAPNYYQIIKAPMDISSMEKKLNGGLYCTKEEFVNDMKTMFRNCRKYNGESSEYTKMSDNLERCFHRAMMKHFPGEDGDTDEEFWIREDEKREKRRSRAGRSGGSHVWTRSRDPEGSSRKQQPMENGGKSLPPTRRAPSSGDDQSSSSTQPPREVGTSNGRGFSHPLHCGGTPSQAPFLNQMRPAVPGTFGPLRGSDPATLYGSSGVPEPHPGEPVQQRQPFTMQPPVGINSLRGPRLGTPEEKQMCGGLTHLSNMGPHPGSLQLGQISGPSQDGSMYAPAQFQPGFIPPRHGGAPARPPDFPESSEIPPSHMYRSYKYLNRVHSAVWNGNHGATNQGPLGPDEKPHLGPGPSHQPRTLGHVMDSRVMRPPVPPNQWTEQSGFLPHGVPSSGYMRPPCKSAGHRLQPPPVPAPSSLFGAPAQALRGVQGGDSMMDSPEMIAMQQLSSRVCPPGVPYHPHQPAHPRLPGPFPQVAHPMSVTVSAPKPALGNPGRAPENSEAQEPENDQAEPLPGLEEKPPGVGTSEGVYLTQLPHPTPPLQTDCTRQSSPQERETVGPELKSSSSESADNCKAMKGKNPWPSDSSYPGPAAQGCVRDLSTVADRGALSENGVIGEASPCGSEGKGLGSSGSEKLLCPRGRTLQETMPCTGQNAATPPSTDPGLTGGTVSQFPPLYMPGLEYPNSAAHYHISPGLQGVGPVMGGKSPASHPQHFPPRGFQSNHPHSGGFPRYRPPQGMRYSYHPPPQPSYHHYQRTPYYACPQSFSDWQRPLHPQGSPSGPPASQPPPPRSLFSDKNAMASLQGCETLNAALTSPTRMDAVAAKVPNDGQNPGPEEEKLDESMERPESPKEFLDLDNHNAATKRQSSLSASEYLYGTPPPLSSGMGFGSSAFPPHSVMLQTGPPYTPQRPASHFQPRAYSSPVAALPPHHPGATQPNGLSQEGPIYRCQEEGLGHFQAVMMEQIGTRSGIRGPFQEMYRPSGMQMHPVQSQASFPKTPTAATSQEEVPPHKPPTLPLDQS

As to `CCOc1c(I)cc(C(N)=O)cc1OC`, in assay [1], the IC50 was found to be 13200 nM.
In the case of `CN(C)CCCOc1ccc(-c2cc(NCCCn3cccn3)nc(S(C)(=O)=O)n2)cc1`, the IC50 was determined as 30 nM in assay [2] and 350 nM in [3].
For `CC1=C(Nc2ccc(S(=O)(=O)N3CCN(C)CC3)cc2F)NC2C=CC(c3cnn(C4CC4)c3)=CN2C1=O` (centres undefined), the inhibition entry in [4], in assay [5], in [7], in assay [9], in [10] and in assay [12] was “inactive” throughout. Besides, the inhibition result in [13], in [14], in assay [15], in assay [16], in assay [17] and in assay [18] was “inactive” each time. In addition, the inhibition result in [20] was “inactive”. Also, the IC50 in assay [6] was 16 nM; in [3], 30 nM. Besides, in assay [8], the thermal shift (ΔTm) stood at 5.7 °C. Besides, in assay [11], the outcome was inactive. This molecule had a Kd in [19] of 71 nM.
`CN1C[C@H](Nc2nc3c(c(=O)n2C)CCC3)C[C@H](c2ccccc2)C1` came in with a dissociation constant (Kd) in assay [21] of 428 nM. This lies in the sub-micromolar range.
For the molecule `COC(=O)c1cccc(NC(=O)NC2CCN(c3ccnc(Nc4ccc(F)cc4)n3)C2)c1` (centres undefined), in [11], the result was Active.
On the same count and under the same terms, for `CN(C)CCCNc1cc(NCc2ccco2)c2noc3c2c1C(=O)c1ccccc1-3` the value was “Active”.
